Assay results: patent US11377442B2, “Small molecule agonists and antagonists of NR2F6 activity” (ZANDER THERAPEUTICS, INC., priority 2016, dated 2022)
Like-named read-outs stand apart in the source and are kept apart here. Values belong to the compound of their own block, whether it stands above or below them.

Legend:
Type in all cases: cell-based
NR2F6 = target: T1, NR2F6 (Homo sapiens, UniProt P10588); experiment: NR2F6 agonist screening, Firefly signal cmpd/DMSO
T1 construct: expressed in transfected cells; also transient transfection
T1 sequence (P10588 1-404): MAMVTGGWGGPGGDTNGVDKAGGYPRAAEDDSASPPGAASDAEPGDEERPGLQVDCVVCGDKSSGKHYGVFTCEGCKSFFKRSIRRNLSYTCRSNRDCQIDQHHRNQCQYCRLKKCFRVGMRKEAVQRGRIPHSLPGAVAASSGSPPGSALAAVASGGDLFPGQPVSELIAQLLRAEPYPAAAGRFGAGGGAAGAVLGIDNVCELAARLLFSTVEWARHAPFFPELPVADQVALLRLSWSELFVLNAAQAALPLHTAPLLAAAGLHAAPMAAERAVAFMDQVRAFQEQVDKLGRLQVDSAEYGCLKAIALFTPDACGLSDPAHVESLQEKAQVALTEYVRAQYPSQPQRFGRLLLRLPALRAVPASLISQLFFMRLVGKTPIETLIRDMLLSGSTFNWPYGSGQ

Renilla = Renilla signal in NR2F6 agonist screening, cmpd/DMSO; settings: Renilla, F4
HEK293 pGL4 = experiment: Firefly_pGL signal, cmpd/DMSO (pGL4 control cells); settings: Homo sapiens
NR2F6 LBD = target: T2, NR2F6 LBD (Homo sapiens, UniProt P10588); experiment: NR2F6 LBD transient transfection; settings: LBD
T2 construct: expressed in transfected cells
T2 sequence (P10588 165-393 limits assumed): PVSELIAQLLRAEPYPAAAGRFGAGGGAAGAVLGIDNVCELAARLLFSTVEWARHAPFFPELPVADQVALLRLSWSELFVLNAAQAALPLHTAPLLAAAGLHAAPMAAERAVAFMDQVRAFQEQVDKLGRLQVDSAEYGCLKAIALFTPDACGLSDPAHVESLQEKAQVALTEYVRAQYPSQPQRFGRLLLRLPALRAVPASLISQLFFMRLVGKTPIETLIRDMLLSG
Procedure, shortened: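 LBD-transfected cells treated at 40, 10, 2 and 0.5 μM (4 replicates); cytotoxicity measured in parallel, normalized to DMSO (0%) and zero signal (100%). Higher concentrations excluded where signal loss reflected toxicity.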

[1] = read-out: Renilla, F4, cmpd/DMSO (mean)
[2] = 1% FBS, read-out: Renilla, F4, 1% FBS, cmpd/DMSO (mean)
[3] = 10% FBS, read-out: Renilla, F4, 10% FBS, cmpd/DMSO (mean)
[4] = HEK293, 0.5 uM, pGL4, read-out: Firefly pGL4, cmpd/DMSO (mean)
[5] = HEK293, 2 uM, pGL4, read-out: Firefly pGL4, cmpd/DMSO (mean)
[6] = HEK293, 10 uM, pGL4, read-out: Firefly pGL4, cmpd/DMSO (mean)
[7] = HEK293, 40 uM, pGL4, read-out: Firefly pGL4, cmpd/DMSO (mean)
[8] = HEK293, pGL4, 1% FBS, 0.5 uM, read-out: Firefly, pGL4, 1% FBS, cmpd/DMSO (mean)
[9] = HEK293, pGL4, 1% FBS, 2 uM, read-out: Firefly, pGL4, 1% FBS, cmpd/DMSO (mean)
[10] = HEK293, pGL4, 1% FBS, 10 uM, read-out: Firefly, pGL4, 1% FBS, cmpd/DMSO (mean)
[11] = HEK293, pGL4, 1% FBS, 40 uM, read-out: Firefly, pGL4, 1% FBS, cmpd/DMSO (mean)
[12] = HEK293, pGL4, 10% FBS, 0.5 uM, read-out: Firefly, pGL4, 10% FBS, cmpd/DMSO (mean)
[13] = HEK293, pGL4, 10% FBS, 2 uM, read-out: Firefly, pGL4, 10% FBS, cmpd/DMSO (mean)
[14] = HEK293, pGL4, 10% FBS, 10 uM, read-out: Firefly, pGL4, 10% FBS, cmpd/DMSO (mean)
[15] = HEK293, pGL4, 10% FBS, 40 uM, read-out: Firefly, pGL4, 10% FBS, cmpd/DMSO (mean)

Firefly F4, cmpd/DMSO (mean) (NR2F6; 0.5 uM): 1.5 | Firefly F4, cmpd/DMSO (mean) (NR2F6; 2 uM): 1.0 | Firefly F4, cmpd/DMSO (mean) (NR2F6; 10 uM): 1.4 | Firefly F4, cmpd/DMSO (mean) (NR2F6; 40 uM): 1.2 | Firefly, F4, 1% FBS, cmpd/DMSO (mean) (NR2F6; 1% FBS, 0.5 uM): 1.2 | Firefly, F4, 1% FBS, cmpd/DMSO (mean) (NR2F6; 1% FBS, 2 uM): 0.9 | Firefly, F4, 1% FBS, cmpd/DMSO (mean) (NR2F6; 1% FBS, 10 uM): 0.9 | Firefly, F4, 1% FBS, cmpd/DMSO (mean) (NR2F6; 1% FBS, 40 uM): 1.1 | Firefly, F4, 10% FBS, cmpd/DMSO (mean) (NR2F6; 10% FBS, 0.5 uM): 1.1 | Firefly, F4, 10% FBS, cmpd/DMSO (mean) (NR2F6; 10% FBS, 2 uM): 1.4 | Firefly, F4, 10% FBS, cmpd/DMSO (mean) (NR2F6; 10% FBS, 10 uM): 1.3 | Firefly, F4, 10% FBS, cmpd/DMSO (mean) (NR2F6; 10% FBS, 40 uM): 0.8 | Firefly LBD, cmpd/DMSO (mean) (NR2F6 LBD; 0.5 uM): 0.9 | Firefly LBD, cmpd/DMSO (mean) (NR2F6 LBD; 2 uM): 1.2 | Firefly LBD, cmpd/DMSO (mean) (NR2F6 LBD; 10 uM): 1.1 | Firefly LBD, cmpd/DMSO (mean) (NR2F6 LBD; 40 uM): 1.2
SMILES: CC(=O)N1CCN([C@H]2CS(=O)(=O)C[C@@H]2S(=O)(=O)c2ccc(F)c(C)c2)CC1 [Compound D116]
fold induction at 0.5 µM (Renilla; [1]): 1 | fold induction at 2 µM (Renilla; [1]): 1.1 | fold induction at 10 µM (Renilla; [1]): 1.1 | fold induction at 40 µM (Renilla; [1]): 1.1 | fold induction at 0.5 µM (Renilla; [2]): 1 | fold induction at 2 µM (Renilla; [2]): 1.1 | fold induction at 10 µM (Renilla; [2]): 1 | fold induction at 40 µM (Renilla; [2]): 1.2 | fold induction at 0.5 µM (Renilla; [3]): 0.8 | fold induction at 2 µM (Renilla; [3]): 0.9 | fold induction at 10 µM (Renilla; [3]): 0.9 | fold induction at 40 µM (Renilla; [3]): 1.2 | fold induction at 0.5 µM (HEK293 pGL4; [4]): 1 | fold induction at 2 µM (HEK293 pGL4; [5]): 1.2 | fold induction at 10 µM (HEK293 pGL4; [6]): 1.1 | fold induction at 40 µM (HEK293 pGL4; [7]): 1.4 | fold induction at 0.5 µM (HEK293 pGL4; [8]): 1.6 | fold induction at 2 µM (HEK293 pGL4; [9]): 1 | fold induction at 10 µM (HEK293 pGL4; [10]): 1.7 | fold induction at 40 µM (HEK293 pGL4; [11]): 1.4 | fold induction at 0.5 µM (HEK293 pGL4; [12]): 1.1 | fold induction at 2 µM (HEK293 pGL4; [13]): 1.1 | fold induction at 10 µM (HEK293 pGL4; [14]): 1.4 | fold induction at 40 µM (HEK293 pGL4; [15]): 1.5

Firefly F4, cmpd/DMSO (mean) (NR2F6; 0.5 uM): 1.2 | Firefly F4, cmpd/DMSO (mean) (NR2F6; 2 uM): 1.9 | Firefly F4, cmpd/DMSO (mean) (NR2F6; 10 uM): 2.8 | Firefly F4, cmpd/DMSO (mean) (NR2F6; 40 uM): 2.6 | F4, Firefly/Renilla for S/B(F4) > 3 (NR2F6; 1% FBS, 40 uM): 1.6 | Firefly, F4/pGL4 for S/B(F4) > 3 (NR2F6; 1% FBS, 40 uM): 2.7 | F4, Firefly/Renilla for S/B(F4) > 3 (NR2F6; 10% FBS, 40 uM): 2.3 | Firefly, F4/pGL4 for S/B(F4) > 3 (NR2F6; 10% FBS, 40 uM): 3.7 | Firefly, F4, 1% FBS, cmpd/DMSO (mean) (NR2F6; 1% FBS, 0.5 uM): 1.1 | Firefly, F4, 1% FBS, cmpd/DMSO (mean) (NR2F6; 1% FBS, 2 uM): 0.9 | Firefly, F4, 1% FBS, cmpd/DMSO (mean) (NR2F6; 1% FBS, 10 uM): 1.6 | Firefly, F4, 1% FBS, cmpd/DMSO (mean) (NR2F6; 1% FBS, 40 uM): 3.2 | Firefly, F4, 10% FBS, cmpd/DMSO (mean) (NR2F6; 10% FBS, 0.5 uM): 1.2 | Firefly, F4, 10% FBS, cmpd/DMSO (mean) (NR2F6; 10% FBS, 2 uM): 1.2 | Firefly, F4, 10% FBS, cmpd/DMSO (mean) (NR2F6; 10% FBS, 10 uM): 1.5 | Firefly, F4, 10% FBS, cmpd/DMSO (mean) (NR2F6; 10% FBS, 40 uM): 5.0 | Firefly LBD, cmpd/DMSO (mean) (NR2F6 LBD; 0.5 uM): 1.1 | Firefly LBD, cmpd/DMSO (mean) (NR2F6 LBD; 2 uM): 1.2 | Firefly LBD, cmpd/DMSO (mean) (NR2F6 LBD; 10 uM): 1.8 | Firefly LBD, cmpd/DMSO (mean) (NR2F6 LBD; 40 uM): 1.9
SMILES: C[C@@H]1C[C@H](C)CN([C@H]2CS(=O)(=O)C[C@@H]2S(=O)(=O)c2ccccc2)C1 [Compound D112]
fold induction at 0.5 µM (Renilla; [1]): 1 | fold induction at 2 µM (Renilla; [1]): 1.1 | fold induction at 10 µM (Renilla; [1]): 1.3 | fold induction at 40 µM (Renilla; [1]): 1.6 | fold induction at 0.5 µM (Renilla; [2]): 1.1 | fold induction at 2 µM (Renilla; [2]): 1.1 | fold induction at 10 µM (Renilla; [2]): 1.4 | fold induction at 40 µM (Renilla; [2]): 2 | fold induction at 0.5 µM (Renilla; [3]): 1 | fold induction at 2 µM (Renilla; [3]): 1 | fold induction at 10 µM (Renilla; [3]): 1.3 | fold induction at 40 µM (Renilla; [3]): 2.1 | fold induction at 0.5 µM (HEK293 pGL4; [4]): 1 | fold induction at 2 µM (HEK293 pGL4; [5]): 1.2 | fold induction at 10 µM (HEK293 pGL4; [6]): 2.2 | fold induction at 40 µM (HEK293 pGL4; [7]): 2.2 | fold induction at 0.5 µM (HEK293 pGL4; [8]): 1.3 | fold induction at 2 µM (HEK293 pGL4; [9]): 1.2 | fold induction at 10 µM (HEK293 pGL4; [10]): 1.7 | fold induction at 40 µM (HEK293 pGL4; [11]): 1.2 | fold induction at 0.5 µM (HEK293 pGL4; [12]): 1.3 | fold induction at 2 µM (HEK293 pGL4; [13]): 1 | fold induction at 10 µM (HEK293 pGL4; [14]): 1.5 | fold induction at 40 µM (HEK293 pGL4; [15]): 1.3
